Biological target: T1, cathepsin K (Homo sapiens, UniProt P43235)
T1 sequence (P43235 115-329): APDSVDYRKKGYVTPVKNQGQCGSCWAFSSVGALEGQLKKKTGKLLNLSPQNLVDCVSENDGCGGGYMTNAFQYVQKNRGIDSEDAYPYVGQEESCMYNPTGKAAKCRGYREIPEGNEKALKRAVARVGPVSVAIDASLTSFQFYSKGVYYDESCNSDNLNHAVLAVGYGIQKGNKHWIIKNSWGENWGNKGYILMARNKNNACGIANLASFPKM
Test: Cathepsin K inhibition studies (progress curve method, fluorogenic peptide substrate)
Assay type: biochemical
Conditions: human recombinant enzyme; substrate typically Cbz-Phe-Arg-AMC; 100 mM Na acetate pH 5.5, 20 mM cysteine, 5 mM EDTA, 10% DMSO
Method: Determination of Cathepsin K Proteolytic Catalytic Activity
All assays for cathepsin K were carried out with human recombinant enzyme. Standard assay conditions for the determination of kinetic constants used a fluorogenic peptide substrate, typically Cbz-Phe-Arg-AMC, and were determined in 100 mM Na acetate at pH 5.5 containing 20 mM cysteine and 5 mM EDTA. Stock substrate solutions were prepared at concentrations of 10 or 20 mM in DMSO with 20 uM final substrate concentration in the assays. All assays contained 10% DMSO. […] All assays were conducted at ambient temperature. Product fluorescence (excitation at 360 nm; emission at 460 nm) was monitored with a Perceptive Biosystems Cytofluor II fluorescent plate reader. […]
Potential inhibitors were evaluated using the progress curve method. […] For those compounds whose progress curves were linear, apparent inhibition constants (Ki,app) were calculated according to equation 1 (Brandt et al., Biochemitsry, 1989, 28, 140): […]
[AMC]=vsst+(v0−vss)[1−exp(−kobst)]/kobs (2) where [AMC] is the concentration of product formed over time t, v0 is the initial reaction velocity and vss is the final steady state rate. Values for kobs were then analyzed as a linear function of inhibitor concentration to generate an apparent second order rate constant (kobs/inhibitor concentration or kobs/[I]) describing the time-dependent inhibition. […]

With `CC(C)C[C@H](NS(=O)(=O)c1cccc2cccnc12)C(=O)NC1COCC1=O` (stereo partly drawn) [4-(R,S)-Amino-N-[(8-quinolinesulfonyl)-S-leucine]-3-tetrahydrofuran-3-one] the Ki was greater than 10 µM.
